# Target: T1, NLRP3 (Homo sapiens, UniProt Q96P20)
# T1 construct: host or cells: THP-1 cells differentiated with PMA
# Assay: IL-1β Secretion Assay (NLRP3-dependent IL1β secretion in THP1 cells)
# Format: cell-based
# Conditions: PMA-differentiated THP-1 cells; compounds incubated 20 h; 2.5 μM Nigericin 3 h; HTRF IL-1β readout; read-out: IC50 IL-1β Inhibition
# In short: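 THP-1 cells differentiated with 100 ng/mL PMA for 24 h, then given compound (7-point 3-fold series, 1:200 from DMSO) for 20 h in RPMI+5% FBS. NLRP3 activated with 2.5 μM nigericin for 3 h; secreted IL-1β measured by HTRF; IC50 from logistic fit of % inhibition.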
# T1 sequence (Q96P20 whole entry): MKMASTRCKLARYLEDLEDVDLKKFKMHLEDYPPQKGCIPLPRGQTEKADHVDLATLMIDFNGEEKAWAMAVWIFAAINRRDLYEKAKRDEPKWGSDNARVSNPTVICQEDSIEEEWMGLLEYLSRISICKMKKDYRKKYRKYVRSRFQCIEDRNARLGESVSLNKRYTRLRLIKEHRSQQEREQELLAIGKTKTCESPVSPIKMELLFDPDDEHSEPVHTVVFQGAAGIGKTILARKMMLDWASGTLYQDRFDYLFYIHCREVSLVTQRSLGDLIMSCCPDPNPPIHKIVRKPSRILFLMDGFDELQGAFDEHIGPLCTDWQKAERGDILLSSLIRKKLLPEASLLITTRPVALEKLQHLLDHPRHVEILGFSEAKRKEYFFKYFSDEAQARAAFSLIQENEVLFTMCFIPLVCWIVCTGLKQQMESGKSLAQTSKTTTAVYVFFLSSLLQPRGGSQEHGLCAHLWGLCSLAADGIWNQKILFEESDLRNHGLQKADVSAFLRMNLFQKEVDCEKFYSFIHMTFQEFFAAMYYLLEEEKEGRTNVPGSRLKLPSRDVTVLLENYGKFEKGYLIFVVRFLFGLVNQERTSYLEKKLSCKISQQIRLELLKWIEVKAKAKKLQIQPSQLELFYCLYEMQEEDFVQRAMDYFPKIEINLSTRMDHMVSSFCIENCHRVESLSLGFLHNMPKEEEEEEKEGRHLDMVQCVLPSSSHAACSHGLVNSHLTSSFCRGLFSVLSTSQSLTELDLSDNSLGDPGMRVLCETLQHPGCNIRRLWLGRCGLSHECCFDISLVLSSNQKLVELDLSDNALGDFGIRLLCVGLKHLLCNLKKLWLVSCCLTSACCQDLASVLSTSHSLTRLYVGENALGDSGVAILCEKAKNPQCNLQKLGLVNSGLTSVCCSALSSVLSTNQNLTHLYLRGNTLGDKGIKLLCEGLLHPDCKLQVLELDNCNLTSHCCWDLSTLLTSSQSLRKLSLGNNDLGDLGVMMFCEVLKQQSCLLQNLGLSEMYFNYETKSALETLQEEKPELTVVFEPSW
row,IC50,Compound
1,1 to 10 nM,"Cc1cc2c(-c3ccc(C4CC4)cc3C(F)F)nnc(N[C@@H]3CCCN(C)C3)n2c1 [Compound 14, 1-[4-cyclopropyl-2-(difluoromethyl)phenyl]-7-methyl-N-[(3R)-1-methylpiperidin-3-yl]pyrrolo[1,2-d][1,2,4]triazin-4-amine]"
2,10 to 100 nM,"COc1ccc(-c2nnc(N[C@H]3C[C@@](C)(O)C3)n3ccc(F)c23)c(OC(F)(F)F)c1 [Compound 54, (1s,3s)-3-({8-fluoro-1-[4-methoxy-2-(trifluoromethoxy)phenyl]pyrrolo[1,2-d][1,2,4]triazin-4-yl}amino)-1-methylcyclobutan-1-ol]"
3,1 to 10 nM,"COc1ccc(-c2nnc(N[C@@H]3CCCC[C@H]3O)n3cccc23)c(CC(F)(F)F)c1 [Compound 138, (1R,2R)-2-({1-[4-methoxy-2-(2,2,2-trifluoroethyl)phenyl]pyrrolo[1,2-d][1,2,4]triazin-4-yl}amino)cyclohexan-1-ol]"
4,1 to 10 nM,"COc1ccc(-c2nnc(N[C@@H]3C[C@@H](F)CN(C)C3)n3cncc23)c(OC(F)F)c1 [Compound 224, 1-[2-(difluoromethoxy)-4-methoxyphenyl]-N-[(3R,5R)-5-fluoro-1-methylpiperidin-3-yl]imidazo[1,5-d][1,2,4]triazin-4-amine]"
5,< 1 nM,"CN1CCC[C@@H](Nc2nnc(-c3ccc(C(F)(F)F)cc3OC(F)(F)F)c3cncn23)C1 [Compound 197, N-[(3R)-1-methylpiperidin-3-yl]-1-[2-(trifluoromethoxy)-4-(trifluoromethyl)phenyl]imidazo[1,5-d][1,2,4]triazin-4-amine]"
6,1 to 10 nM,"O[C@@H]1COCC[C@@H]1Nc1nnc(-c2ccc(C(F)(F)F)cc2CC(F)(F)F)c2cccn12 [Compound 115, (3S,4S)-4-({1-[2-(2,2,2-trifluoroethyl)-4-(trifluoromethyl)phenyl]pyrrolo[1,2-d][1,2,4]triazin-4-yl}amino)oxan-3-ol]"
7,1 to 10 nM,"Oc1cccc(CNc2nnc(-c3ccc(C(F)(F)F)cc3OC(F)F)c3cccn23)c1 [Compound 101, 3-[{{1-[2-(difluoromethoxy)-4-(trifluoromethyl)phenyl]pyrrolo[1,2-d][1,2,4]triazin-4-yl}amino)methyl]phenol]"
8,1 to 10 nM,"OCCN1CCC[C@@H](Nc2nnc(-c3ccc(C(F)(F)F)cc3C(F)(F)F)c3cncn23)C1 [Compound 253, 2-[(3R)-3-({1-[2,4-bis(trifluoromethyl)phenyl]imidazo[1,5-d][1,2,4]triazin-4-yl}amino)piperidin-1-yl]ethan-1-ol]"
9,< 1 nM,"COc1ccc(-c2nnc(N[C@@H]3CCCN(C)C3)n3cc(C)cc23)c(OC(F)(F)F)c1 [Compound 131, 1-[4-methoxy-2-(trifluoromethoxy)phenyl]-7-methyl-N-[(3R)-1-methylpiperidin-3-yl]pyrrolo[1,2-d][1,2,4]triazin-4-amine]"
10,1 to 10 nM,"O=C1NCCC1Nc1nnc(-c2ccc(C(F)(F)F)cc2C2CC2)c2cncn12 (centres unmarked) [Compound 333, 3-({1-[2-cyclopropyl-4-(trifluoromethyl)phenyl]imidazo[1,5-d][1,2,4]triazin-4-yl}amino)pyrrolidin-2-one]"
11,1 to 10 nM,"CN1C[C@H](F)C[C@@H](Nc2nnc(-c3ccc(OC(F)F)cc3OC(F)(F)F)c3cccn23)C1 [Compound 87, 1-[4-(difluoromethoxy)-2-(trifluoromethoxy)phenyl]-N-[(3R,5R)-5-fluoro-1-methylpiperidin-3-yl]pyrrolo[1,2-d][1,2,4]triazin-4-amine]"
12,10 to 100 nM,"COc1ccc(-c2nnc(Nc3cc[nH]n3)n3ccc(F)c23)c(C(F)(F)F)c1 [Compound 117, 8-fluoro-1-[4-methoxy-2-(trifluoromethyl)phenyl]-N-(1H-pyrazol-3-yl)pyrrolo[1,2-d][1,2,4]triazin-4-amine]"
13,< 1 nM,"CCN1CC[C@@H](O)[C@@H](Nc2nnc(-c3ccc(OC)cc3OC(F)F)c3cccn23)C1 [Compound 175, (3S,4R)-3-({1-[2-(difluoromethoxy)-4-methoxyphenyl]pyrrolo[1,2-d][1,2,4]triazin-4-yl}amino)-1-ethylpiperidin-4-ol]"
14,10 to 100 nM,"COc1ccc(-c2nnc(N[C@@H]3CCCN(CCO)C3)n3ccc(F)c23)c(OC(F)F)c1 [Compound 57, 2-[(3R)-3-({1-[2-(difluoromethoxy)-4-methoxyphenyl]-8-fluoropyrrolo[1,2-d][1,2,4]triazin-4-yl}amino)piperidin-1-yl]ethan-1-ol]"
15,1 to 10 nM,"O[C@@H]1CCCC[C@H]1Nc1nnc(-c2ccc(Br)cc2OC(F)(F)F)c2cncn12 [Compound 307, (1R,2R)-2-({1-[4-bromo-2-(trifluoromethoxy)phenyl]imidazo[1,5-d][1,2,4]triazin-4-yl}amino)cyclohexan-1-ol]"
16,1 to 10 nM,"Cc1cc2c(-c3ccc(C(F)(F)F)cc3C(F)(F)F)nnc(N[C@@H]3CCCC[C@H]3O)n2c1 [Compound 160, (1R,2R)-2-({1-[2,4-bis(trifluoromethyl)phenyl]-7-methylpyrrolo[1,2-d][1,2,4]triazin-4-yl}amino)cyclohexan-1-ol]"

row,IC50,Compound
1,10 to 100 nM,"COc1ccc(-c2nnc(N[C@@H]3CCOC[C@H]3O)n3cccc23)c(OC(F)F)c1 [Compound 167, (3S,4R)-4-({1-[2-(difluoromethoxy)-4-methoxyphenyl]pyrrolo[1,2-d][1,2,4]triazin-4-yl}amino)oxan-3-ol]"
2,≥ 300 nM,"COc1ccc(-c2nnc(NC(C)c3ccccc3)n3cncc23)c(OC(F)(F)F)c1 (centres unmarked) [Compound 231, 1-[4-methoxy-2-(trifluoromethoxy)phenyl]-N-(1-phenylethyl)imidazo[1,5-d][1,2,4]triazin-4-amine]"
3,1 to 10 nM,"COc1ccc(-c2nnc(N[C@@H]3CCCC[C@H]3O)n3cncc23)c(OC(F)F)c1 [Compound 270, (1R,2R)-2-({1-[2-(difluoromethoxy)-4-methoxyphenyl]imidazo[1,5-d][1,2,4]triazin-4-yl}amino)cyclohexan-1-ol]"
4,10 to 100 nM,"CC1(CO)CC(Nc2nnc(-c3ccc(C(F)(F)F)cc3OC(F)(F)F)c3cncn23)C1 (centres unmarked) [Compound 335, [1-methyl-3-({1-[2-(trifluoromethoxy)-4-(trifluoromethyl)phenyl]imidazo[1,5-d][1,2,4]triazin-4-yl}amino)cyclobutyl]methanol]"
5,1 to 10 nM,"O[C@@H]1CCCC[C@H]1Nc1nnc(-c2ccc(Cl)cc2OC(F)(F)F)c2cncn12 [Compound 300, (1R,2R)-2-({1-[4-chloro-2-(trifluoromethoxy)phenyl]imidazo[1,5-d][1,2,4]triazin-4-yl}amino)cyclohexan-1-ol]"
6,10 to 100 nM,"Cc1cc2c(-c3ccc(Cl)cc3C(F)F)nnc(N[C@@H]3CCCN(C)C3)n2n1 [Compound 362, 4-[4-chloro-2-(difluoromethyl)phenyl]-2-methyl-N-[(3R)-1-methylpiperidin-3-yl]pyrazolo[1,5-d][1,2,4]triazin-7-amine]"
7,< 1 nM,"COc1ccc(-c2nnc(NC(C)c3cccc(O)c3)n3cncc23)c(C(F)(F)F)c1 (centres unmarked) [Compound 251, 3-[1-({1-[4-methoxy-2-(trifluoromethyl)phenyl]imidazo[1,5-d][1,2,4]triazin-4-yl}amino)ethyl]phenol]"
8,10 to 100 nM,"O[C@H]1CC[C@@H](Nc2nnc(-c3ccc(C(F)(F)F)cc3C(F)(F)F)c3cncn23)CC1 [Compound 275, (1s,4s)-4-({1-[2,4-bis(trifluoromethyl)phenyl]imidazo[1,5-d][1,2,4]triazin-4-yl}amino)cyclohexan-1-ol]"
9,< 1 nM,"OCCN1CCC[C@@H](Nc2nnc(-c3ccc(C(F)(F)F)cc3OC(F)F)c3cncn23)C1 [Compound 186, 2-[(3R)-3-({1-[2-(difluoromethoxy)-4-(trifluoromethyl)phenyl]imidazo[1,5-d][1,2,4]triazin-4-yl}amino)piperidin-1-yl]ethan-1-ol]"
10,10 to 100 nM,"COc1ccc(-c2nnc(NC[C@@H]3CCCN3C)n3cccc23)c(OC(F)(F)F)c1 [Compound 74, 1-[4-methoxy-2-(trifluoromethoxy)phenyl]-N-{[(2S)-1-methylpyrrolidin-2-yl]methyl}pyrrolo[1,2-d][1,2,4]triazin-4-amine]"
11,10 to 100 nM,"OCCN1CCC[C@@H](Nc2nnc(-c3ccc(C(F)(F)F)cc3F)c3cccn23)C1 [Compound 21, 2-[(3R)-3-({1-[2-fluoro-4-(trifluoromethyl)phenyl]pyrrolo[1,2-d][1,2,4]triazin-4-yl}amino)piperidin-1-yl]ethan-1-ol]"
12,< 1 nM,"CC(Nc1nnc(-c2ccc(OC(F)F)cc2OC(F)(F)F)c2cccn12)c1cccc(O)c1 (centres unmarked) [Compound 172, 3-[1-({1-[4-(difluoromethoxy)-2-(trifluoromethoxy)phenyl]pyrrolo[1,2-d][1,2,4]triazin-4-yl}amino)ethyl]phenol]"
13,< 1 nM,"COc1ccc(-c2nnc(N[C@@H]3CCCN(C)C3)n3cncc23)c(CC(F)(F)F)c1 [Compound 250, 1-[4-methoxy-2-(2,2,2-trifluoroethyl)phenyl]-N-[(3R)-1-methylpiperidin-3-yl]imidazo[1,5-d][1,2,4]triazin-4-amine]"
14,10 to 100 nM,"COc1ccc(-c2nnc(N[C@H]3C[C@@](C)(O)C3)n3cncc23)c(C2CC2)c1 [Compound 319, (1s,3s)-3-{[1-(2-cyclopropyl-4-methoxyphenyl)imidazo[1,5-d][1,2,4]triazin-4-yl]amino}-1-methylcyclobutan-1-ol]"
15,< 1 nM,"COc1ccc(-c2nnc(NC(C)c3cccc(O)c3)n3cncc23)c(CC(F)(F)F)c1 (centres unmarked) [Compound 303, 3-[1-({1-[4-methoxy-2-(2,2,2-trifluoroethyl)phenyl]imidazo[1,5-d][1,2,4]triazin-4-yl}amino)ethyl]phenol]"
16,1 to 10 nM,"COc1ccc(-c2nnc(N[C@@H]3CCCN(C)C3)n3cncc23)c(C(F)(F)C(F)(F)F)c1 [Compound 281, 1-[4-methoxy-2-(pentafluoroethyl)phenyl]-N-[(3R)-1-methylpiperidin-3-yl]imidazo[1,5-d][1,2,4]triazin-4-amine]"
